Measurements: US8436171B2, “Amino substituted pyrazines as inhibitors or protein kinases” (Akinion Pharmaceuticals AB, priority 2008, dated 2013)
Counter-ions that a name gives are not always drawn.

What was measured:
recombinant human FLT3 = target: T1, recombinant human FLT3 (Homo sapiens, UniProt P36888); assay: In vitro FLT3 kinase assay (IMAP fluorescence polarization); type: biochemical; settings: mean, n = 4-8; ATP 100 μM; FAM-CSKtide 100 nM; read-out: IC50 (nM), typical mean IC50 values determined in the FLT3 kinase assay
T1 construct: N-terminal GST tagged, amino acids 564-end; GST (N); purchased Upstate 14-500
T1 sequence (P36888 564-993 limits assumed): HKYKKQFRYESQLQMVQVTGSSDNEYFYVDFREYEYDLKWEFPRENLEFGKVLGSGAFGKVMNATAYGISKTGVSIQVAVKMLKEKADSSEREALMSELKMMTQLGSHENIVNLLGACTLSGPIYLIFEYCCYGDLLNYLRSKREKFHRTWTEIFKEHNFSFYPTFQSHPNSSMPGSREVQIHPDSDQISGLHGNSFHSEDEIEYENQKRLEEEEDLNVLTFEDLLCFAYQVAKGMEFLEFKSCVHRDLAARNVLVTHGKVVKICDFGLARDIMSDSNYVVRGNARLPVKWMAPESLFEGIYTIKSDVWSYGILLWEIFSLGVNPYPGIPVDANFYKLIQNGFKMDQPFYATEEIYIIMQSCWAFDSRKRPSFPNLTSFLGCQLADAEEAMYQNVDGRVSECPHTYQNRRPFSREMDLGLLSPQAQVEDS
Experimental: The compounds according to the invention were evaluated for their inhibition of FLT3 by the following method:
In Vitro FLT3 Kinase Assay
An enzyme inhibition assay for the tyrosine kinase domain of FLT3 was established using a fluorescence polarization technique, Immobilized Metal Ion Affinity-Based Fluorescence Polarization (IMAP) from Molecular Devices.
Briefly: kinase activity is measured by incubating a fluorescent peptide substrate with the kinase domain. After completion of the kinase reaction a binding buffer is added. Upon phosphorylation of the substrate, the fluorescent peptide gains the ability to bind to a metal-coated nanoparticle. When the substrate is bound to the nanoparticle, the rotational is speed of the peptide is reduced, and thus the fluorescence polarization (fp) becomes high. Compounds inhibiting the kinase activity of the enzyme will result in a low degree of phosphorylated substrate and a low fp-signal.
IMAP Buffer kit with Progressive Binding System (Molecular Devices, #R8124): Reaction buffer: 10 mM Tris-HCL pH 7.2 with 10 mM MgCl2, 0.05% NaN3 and 0.01% Tween 20. Prior to use DTT was added to 1 mM DTT final concentration (complete reaction buffer).
Binding solution was prepared from buffer kit according to the manufactures recommendations. Binding Reagent was diluted 1:1500 in 40% Binding buffer A and 60% Binding buffer B.
FLT3 enzyme used was recombinant human FLT3 from Upstate (#14-500) 7.2 U/ml, N-terminal GST tagged, amino acids 564-end.
Substrate peptide used: FAM-CSKtide from Molecular Devices (#R7269) 20 μM, 5FAM-KKKKEEIYFFFG-NH2. […]
• Pipette into 96-well black ½ area plate: • 5 μl compound dilution or vehicle • 5 μl substrate peptide (400 nM) • 5 μl enzyme (0.05 U/ml) or complete reaction buffer for non specific background (NSB) • 5 μl ATP (400 μM) • Cover the plate and incubate at room temperature with gentle agitation II. […] Fluorescence Polarization analysis: • Measure fluorescein using a plate reader (Analyst AD) excitation wave length 485 and emission wave length 530, reading with integration time of 0.1 sec. […]

[1] = system: AML cell-line MV4-11 (FLT3-ITD); assay: Viability and proliferation assay in AML cell line MV4-11; type: cell-based; settings: Homo sapiens; MV4-11 cells, 72 hours, viable cells by flow cytometry; read-out: Cell data MV4-11 (nM), EC50 values determined in AML-cell line
Experimental: AML cell-line MV4-11 carries the FLT3-internal tandem duplication. This cell-line has been widely used for evaluating the effect of FLT3-kinase inhibitors on viability and proliferation.
Briefly, cells are seeded at a low density into 96-well plates. Serial dilution of compounds is added and the cells are incubated for 72 hours. Total number of viable cells is measured using flow cytometry at the end of treatment, and the effect of the compounds is calculated as % inhibition compared to vehicle treated cells.
All cells were cultured under standard cell culture conditions, at 37° Celsius in an atmosphere of 5% CO2 in 90% humidity.
AML-cell line MV4-11 was cultured in DMEM Glutamax high glucose ([…] glucose) supplemented with 10% Fetal Bovine Serum (FBS) from Invitrogen. Cells were subcultured twice weakly, growing to a density of approx 2 million cells per ml prior to subcultivation.
For viability determination, 3000-5000 cells were seeded in 50 microliter culture medium into a 96-well plate. Serial dilutions 1:3 of compounds from 10 mM DMSO stock were made in serumfree culture medium supplemented with penicillin and streptomycin. 50 microliter of the serial dilutions were added to the cell-suspension. The final concentration of compounds was from 5 micromolar to 0.8 nM, or from 500 nM to 0.08 nM respectively. The DMSO concentration was kept constant at 0.05%.
At the end of the treatment, 100 microliter viability reagent (Guava ViaCount) was added to each well and number of cells and viability was determined using flow cytometry (Guava 96-well ViaCount assay). Typically the vehicle treated (0.05% DMSO) cell-line cells had doubled three times during the experiment.
% Survival was calculated compared to the vehicle treated cells at the end of experiment. EC50 values were determined using the equation (A+((B−A)/(1+((C/x)^D)))) where A equals min, B equals max, C equals EC50 and D equals Hill slope.

SMILES | IC50 (recombinant human FLT3) [nM] | EC50 [1] [nM]
Nc1ncc(-c2ccncc2)nc1NCCc1c[nH]c2ccccc12 [Example 15, N3-[2-(1H-Indol-3-yl)ethyl]-5-pyridin-4-ylpyrazine-2,3-diamine, trifluoroacetate] | 60 | 184
NC(=O)c1ccc(-c2cncc(N[C@H]3CC[C@H](O)CC3)n2)cc1 [Example 28, 4-{6-[(trans-4-Hydroxycyclohexyl)amino]pyrazin-2-yl}benzamide, trifluoroacetate] | 159 | 178
c1cc(-c2cncc(Nc3ccc4cc[nH]c4c3)n2)ccn1 [Example 32, N-(6-Pyridin-4-ylpyrazin-2-yl)-1H-indol-6-amine] | 560 | 373
